Non-standard residues stand in square brackets, D forms with d.
How the values were obtained:
[1] = system: Type I procollagen; experiment: Western blot of type I procollagen / soluble type I collagen in fibroblast cultures after 72 hours of treatment; assay type: cell-based, human; settings: fibroblasts, peptide 20 mM, no FBS, compared with TGF-β1, SA1III, Peptide 1, Peptide 2 (FIG. 1)
Description: Neonatal human dermal fibroblasts (NHDF) have been obtained from Lonza. Cultures of adult dermal fibroblasts have been prepared from cutaneous skin biopsies of healthy donors having different ages, as described in Pani et al. J. Alzheimer's Dis. (2009) 18:829-41, C6 ([…]), C3 (person) and C12 (person). A written informed consent to use these dermal cells was obtained from all the donor subjects involved, according to the Guidelines indicated by the Ethics Committee of the Careggi University Hospital (Florence, Italy) and by the Helsinki Declaration of 1975, as reviewed in the 1983. All cell cultures have been subjected to a similar number of steps, from 6 to 9, at the beginning of the experiments, and were preserved in the modified Dulbecco Eagle culture medium (DMEM, Lonza) added with FBS 10% (Gibco), 100 units/ml of penicillin G, 0.05 mg/ml of streptomycin and glutamine 2 mM (PAN-Biotech GmbH), at 37° C. in a humidified incubator containing 5% of CO2.
The cells were seeded in 12-wells plates (30000 cells per well) and treated the day after with the peptide AAT11RI (20 mM). […]
All treatments have been carried out in the absence of FBS to avoid interferences in the electrophoretic migration. […] The protein content in the lysates was measured using the Bio-Rad DC protein assay kit. […]

[2] = system: extracellular collagen; settings: fibroblasts obtained from subjects of various ages; cited from earlier work

Substance	ability to increase the concentration of procollagen in vitro [1]	levels of extracellular collagen [2]
Ac-DAsn-DVal-DVal-DLys-NH2 (Ac-[dN][dV][dV][dK]-NH2) [AAT11RI]	surprisingly higher than all the other products tested	
SA1-III: C-terminal peptide fragment 409-418 of the serpin A1 molecule, positive control (MGKVVNPTQK)		increased levels of extracellular collagen

Source: US20260008811A1, “BIOACTIVE PEPTIDES AND COMPOSITIONS COMPRISING THEM” (ESPIKEM S.R.L., priority 2019, published 2026)
